From paper PMC6220849, “Mechanistic and structural studies of KDM‐catalysed demethylation of histone 1 isotype 4 at lysine 26” (Febs Letters, 2018)
Square brackets hold non-standard residues; d marks the D form. Ends that are not written are not given here. Lys(Me2) = CN(C)CCCC[C@H](N)C(=O)O

Columns and labels:
[1] = target: T1, recombinant human KDM4A (Homo sapiens, UniProt O75164); assay: Formaldehyde dehydrogenase (FDH)-coupled demethylation assay, Michaelis–Menten kinetics; assay type: biochemical; details: peptide as substrate
T1 construct: recombinantly expressed as reported either in Escherichia coli (KDM2A1–557 25, KDM4A1–359 26); His6 (N); made in house; host or cells: Escherichia coli
T1 sequence (O75164 1-359): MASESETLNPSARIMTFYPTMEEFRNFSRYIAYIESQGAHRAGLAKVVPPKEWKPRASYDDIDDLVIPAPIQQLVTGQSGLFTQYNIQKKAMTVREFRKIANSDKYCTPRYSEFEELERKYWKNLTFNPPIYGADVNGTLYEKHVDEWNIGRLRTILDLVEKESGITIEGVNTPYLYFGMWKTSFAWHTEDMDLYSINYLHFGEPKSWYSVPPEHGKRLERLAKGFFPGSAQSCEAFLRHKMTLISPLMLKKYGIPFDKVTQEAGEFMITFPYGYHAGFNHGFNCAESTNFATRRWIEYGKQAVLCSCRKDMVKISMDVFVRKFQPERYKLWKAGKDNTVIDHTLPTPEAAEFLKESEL
Description: Kinetic parameters for KDM4 enzymes were determined by use of an FDH (formaldehyde dehydrogenase)/NAD^+‐coupled) assay for quantification of the formaldehyde reaction byproduct, as previously described 27. […] Specific activities were measured using a 100‐μM peptide. For Michaelis–Menten experiments, peptide concentrations were varied. Reactions were monitored using a PHERAstar FS plate reader (BMG Labtech, Ortenberg, Germany) with 355 nm excitation and 460 nm emission. Kinetic parameters were calculated from the reaction rate during the initial linear phase of formaldehyde production, which were used to calculate specific activities or fitted to Michaelis–Menten equations using […] PRISM (GraphPad Software, La Jolla, CA, USA).
Michaelis–Menten kinetics were then conducted with KDM4A. Samples containing KDM4A, 2OG, ascorbate, H1.4K26me3 peptide, NAD^+ and FDH were analysed over time and kinetic parameters were determined by recording the initial reaction rates of NADH production (corresponding to enzymatic production of formaldehyde) at varying peptide concentration.

[2] = tested on: KDM4E (KDM4E1–337); assay: MALDI-TOF MS demethylation activity assay, KDM4E; assay type: biochemical, human; design: key: 🟢: Indicates that clear demethylation activity was observed; 🟡: Indicates that low level demethylation activity was observed (<10% conversion after 1 h); 🔴: Indicates no activity under the stated conditions (1 μM KDM, 10 μM peptide); 🟡*: *Indicates demethylation activity was only observed with 5 μM KDM; details: peptide as substrate, 1 μM KDM, 10 μM peptide, 50 mM HEPES pH 7.5, Fe(II) 10 μM, ascorbate 100 μM, 2OG 200 μM, 1 h at 37 °C
Description: (§1) Recombinant proteins (1 μM) were incubated with peptides (10 μM, sequences are given in Table S1) in 50 mM HEPES, pH 7.5 with addition of Fe(II) ammonium sulfate (10 μM), sodium ascorbate (100 μM) and 2‐oxoglutaric acid (200 μM). Reactions with KDM3A and KDM7A also contained 1 mM tris(2‐carboxyethyl)phosphine hydrochloride. No enzyme reactions were included as negative controls. Reactions were incubated for 1 h at 37 °C before being quenched with 1 : 1 (v/v) methanol. Analysis was carried out by MALDI‐TOF MS (Bruker, Billerica, MA, USA), with demethylation observed as mass shifts of 14 Da.
(§2) The propensity of human JmjC KDMs to catalyse demethylation at H1.4K26 was investigated using recombinant forms of the catalytic domains of representatives of each human JmjC KDM subfamily (KDM2‐7) and fragment peptides (Table S1) 37. Three peptides with identical sequences, corresponding to residues 18–32 of histone H1.4 (H2N‐[…]‐CONH2), but containing either a N ^ε‐tri‐, di‐ or monomethyllysine at K26 were synthesised (Fig. 1B and Table S1). Activity assays monitoring JmjC KDM‐catalysed demethylation of the peptides were then carried out; samples were prepared containing each peptide, 2‐oxoglutarate (2OG), ferrous iron, ascorbate and individual representatives from each JmjC KDM subfamily (KDM2A 38, KDM3A 21, KDM4E 22, KDM5C 39, 40, KDM6B 41, KDM7A 42).

[3] = tested on: KDM4B (KDM4B1–359); assay: MALDI-TOF MS demethylation activity assay, KDM4B; assay type: biochemical, human; design: key: 🟢: Indicates that clear demethylation activity was observed; 🟡: Indicates that low level demethylation activity was observed (<10% conversion after 1 h); 🔴: Indicates no activity under the stated conditions (1 μM KDM, 10 μM peptide); 🟡*: *Indicates demethylation activity was only observed with 5 μM KDM; details: peptide as substrate, 1 μM KDM, 10 μM peptide, 50 mM HEPES pH 7.5, Fe(II) 10 μM, ascorbate 100 μM, 2OG 200 μM, 1 h at 37 °C
Description: as §1
(§3) Given the activity observed with KDM4E and KDM7A, we decided to investigate the intra‐subfamily conservation of this demethylation activity. The demethylation activity of the other subfamily members (KDM4A‐D and KDM7B) was therefore screened. […] Note that as with H3K9, demethylation of the monomethylated H1.4K26 peptide was only observed with KDM4E, under the stated conditions 24.

[4] = tested on: KDM4A (KDM4A1–359); assay: MALDI-TOF MS demethylation activity assay, KDM4A; assay type: biochemical, human; design: key: 🟢: Indicates that clear demethylation activity was observed; 🟡: Indicates that low level demethylation activity was observed (<10% conversion after 1 h); 🔴: Indicates no activity under the stated conditions (1 μM KDM, 10 μM peptide); 🟡*: *Indicates demethylation activity was only observed with 5 μM KDM; details: peptide as substrate, 1 μM KDM, 10 μM peptide, 50 mM HEPES pH 7.5, Fe(II) 10 μM, ascorbate 100 μM, 2OG 200 μM, 1 h at 37 °C
Description: as §1, §3

[5] = tested on: KDM3A (KDM3A515–1317); assay: MALDI-TOF MS demethylation activity assay, KDM3A; assay type: biochemical, human; design: key: 🟢: Indicates that clear demethylation activity was observed; 🟡: Indicates that low level demethylation activity was observed (<10% conversion after 1 h); 🔴: Indicates no activity under the stated conditions (1 μM KDM, 10 μM peptide); 🟡*: *Indicates demethylation activity was only observed with 5 μM KDM; details: peptide as substrate, 1 μM KDM, 10 μM peptide, 50 mM HEPES pH 7.5, Fe(II) 10 μM, ascorbate 100 μM, 2OG 200 μM, 1 mM TCEP, 1 h at 37 °C
Description: as §1, §2

[6] = tested on: KDM6B (KDM6B1141–1590); assay: MALDI-TOF MS demethylation activity assay, KDM6B; assay type: biochemical, human; design: key: 🟢: Indicates that clear demethylation activity was observed; 🟡: Indicates that low level demethylation activity was observed (<10% conversion after 1 h); 🔴: Indicates no activity under the stated conditions (1 μM KDM, 10 μM peptide); 🟡*: *Indicates demethylation activity was only observed with 5 μM KDM; details: peptide as substrate, 1 μM KDM, 10 μM peptide, 50 mM HEPES pH 7.5, Fe(II) 10 μM, ascorbate 100 μM, 2OG 200 μM, 1 h at 37 °C
Description: as §1, §2

[7] = tested on: KDM7B (PHF8; KDM7B1–447); assay: MALDI-TOF MS demethylation activity assay, KDM7B (PHF8); assay type: biochemical, human; design: key to demethylation activity on methylated H1.4 peptide: 🟢: Indicates that clear demethylation activity was observed; 🟡: Indicates that low level demethylation activity was observed (<10% conversion after 1 h); 🔴: Indicates no activity under the stated conditions (1 μM KDM, 10 μM peptide); 🟡*: *Indicates demethylation activity was only observed with 5 μM KDM; details: for demethylation at increased enzyme concentration (result in words): MALDI-TOF MS time course, KDM7B 5 μM, peptide 10 μM, 37 °C
Description: as §1, §3
(§4) N ^ε‐Trimethylated H3K4 binds to the plant homeobox domain of KDM7B, targeting the N ^ε‐dimethyllysine at H3K9 to the catalytic domain, and thus promoting demethylation 29, 44. To test whether similar targeting may occur with H1.4, promoting activity at H1.4K26, an H1.4 peptide was synthesised containing di‐N ^ε‐methyllysine at K26 and tri‐N ^ε‐methyllysine at K21 (i.e. at the equivalent position in the sequence to K4 in the H3 peptide, Fig. 1B, Table S1). Monomethylation at H1.4K21 has previously been observed by proteomic mass spectrometry 45. With the aim of enhancing activity, the enzyme concentration was increased from 1 μM to 5 μM, and time course analyses were conducted with both KDM7A and KDM7B, both with the new peptide (H1.4(18–32)K21me3K26me2) and the H1.4 peptides methylated only at K26 (Fig. 2B). […] Thus, it appears unlikely that N ^ε‐trimethylation at H1.4K21 promotes demethylation at H1.4K26 by KDM7B.

[8] = tested on: KDM5C (KDM5C1–765); assay: MALDI-TOF MS demethylation activity assay, KDM5C; assay type: biochemical, human; design: key: 🟢: Indicates that clear demethylation activity was observed; 🟡: Indicates that low level demethylation activity was observed (<10% conversion after 1 h); 🔴: Indicates no activity under the stated conditions (1 μM KDM, 10 μM peptide); 🟡*: *Indicates demethylation activity was only observed with 5 μM KDM; details: peptide as substrate, 1 μM KDM, 10 μM peptide, 50 mM HEPES pH 7.5, Fe(II) 10 μM, ascorbate 100 μM, 2OG 200 μM, 1 h at 37 °C
Description: as §1, §2

[9] = tested on: KDM4D (KDM4D1–359); assay: MALDI-TOF MS demethylation activity assay, KDM4D; assay type: biochemical, human; design: key: 🟢: Indicates that clear demethylation activity was observed; 🟡: Indicates that low level demethylation activity was observed (<10% conversion after 1 h); 🔴: Indicates no activity under the stated conditions (1 μM KDM, 10 μM peptide); 🟡*: *Indicates demethylation activity was only observed with 5 μM KDM; details: peptide as substrate, 1 μM KDM, 10 μM peptide, 50 mM HEPES pH 7.5, Fe(II) 10 μM, ascorbate 100 μM, 2OG 200 μM, 1 h at 37 °C
Description: as §1, §3

[10] = tested on: KDM2A (KDM2A1–557); assay: MALDI-TOF MS demethylation activity assay, KDM2A; assay type: biochemical, human; design: key: 🟢: Indicates that clear demethylation activity was observed; 🟡: Indicates that low level demethylation activity was observed (<10% conversion after 1 h); 🔴: Indicates no activity under the stated conditions (1 μM KDM, 10 μM peptide); 🟡*: *Indicates demethylation activity was only observed with 5 μM KDM; details: peptide as substrate, 1 μM KDM, 10 μM peptide, 50 mM HEPES pH 7.5, Fe(II) 10 μM, ascorbate 100 μM, 2OG 200 μM, 1 h at 37 °C
Description: as §1, §2

[11] = tested on: KDM7A (KDM7A38–480); assay: MALDI-TOF MS demethylation activity assay, KDM7A; assay type: biochemical, human
Description: as §1, §2, §4

[12] = tested on: KDM4C (KDM4C1–359); assay: MALDI-TOF MS demethylation activity assay, KDM4C; assay type: biochemical, human; design: key: 🟢: Indicates that clear demethylation activity was observed; 🟡: Indicates that low level demethylation activity was observed (<10% conversion after 1 h); 🔴: Indicates no activity under the stated conditions (1 μM KDM, 10 μM peptide); 🟡*: *Indicates demethylation activity was only observed with 5 μM KDM; details: peptide as substrate, 1 μM KDM, 10 μM peptide, 50 mM HEPES pH 7.5, Fe(II) 10 μM, ascorbate 100 μM, 2OG 200 μM, 1 h at 37 °C
Description: as §1, §3

[13] = concentration varied, FDH/NAD+-coupled fluorescence assay, 50 mM HEPES pH 7.5, 0.01% Tween-20, 2OG 200 μM, KDM4A, mean and standard deviation of three independent replicates, SD

Substance | K M [1, 13] | k cat [1, 13] | k cat/K M ([1]; FDH-coupled assay, ratio of k cat (s^−1) and K M (μM)) | demethylation activity on methylated H1.4 peptide [2] | demethylation activity on methylated H1.4 peptide [3] | demethylation activity on methylated H1.4 peptide [4] | demethylation activity on methylated H1.4 peptide [5] | demethylation activity on methylated H1.4 peptide [6] | demethylation at increased enzyme concentration (result in words) [7] | demethylation at increased enzyme concentration (result in words) ([7]; listed as H1.4K26me2) | demethylation activity on methylated H1.4 peptide ([7]; peptide as substrate, MALDI-TOF MS, 1 μM KDM (* = only with 5 μM KDM), 10 μM peptide, 50 mM HEPES pH 7.5, Fe(II) 10 μM, ascorbate 100 μM, 2OG 200 μM, 1 h at 37 °C) | demethylation activity on methylated H1.4 peptide [8] | demethylation activity on methylated H1.4 peptide [9] | demethylation activity on methylated H1.4 peptide [10] | demethylation at increased enzyme concentration (result in words) ([11]; MALDI-TOF MS time course, KDM7A 5 μM, peptide 10 μM, 37 °C) | demethylation activity on methylated H1.4 peptide ([11]; peptide as substrate, MALDI-TOF MS, 1 μM KDM, 10 μM peptide, 50 mM HEPES pH 7.5, Fe(II) 10 μM, ascorbate 100 μM, 2OG 200 μM, 1 mM TCEP, 1 h at 37 °C) | demethylation activity on methylated H1.4 peptide [12]
APATGGV-Kme3-KPHRYRP [H3(29–43)K36me3, histone H3 residues 29–43 peptide with Kme3 at K36, reference compound] | 66.8 ± 5.4 µM | 0.12 ± 0.004 s⁻¹ | 1900 M⁻¹ s⁻¹ | – | – | – | – | – | – | – | – | – | – | – | – | – | –
TPVKKKAR[Lys(Me2)]SAGAAK [H1.4(18–32)K26me2, peptide of residues 18–32 of histone H1.4 with N ε-dimethyllysine at K26] | – | – | – | 🟢 | 🟢 | 🟢 | 🔴 | 🔴 | demethylation of H1.4(18-32)K26me2 is observed | clear evidence for demethylation | 🟡* | 🔴 | 🟢 | 🔴 | clear evidence for demethylation | 🟡 (Indicates that low level demethylation activity was observed (<10% conversion after 1 h)) | 🟢
